Laboratory results as given in patent publication US20220202805A1, “REBAMIPIDE FOR USE IN PREVENTION AND/OR TREATMENT OF SYNUCLEINOPATHIES” (SQUARE POWER LTD., priority 2019, published 2022).

Tested on: β-sitosterol β-D-glucoside (BSSG) model
Assay: BSSG-induced Parkinson's disease model in rats, 10-month study
Type: in vivo, Male Sprague Dawley rats
Excerpt: Increased intestinal permeability may lead to a leakage of various substances (such as bacterial toxins and xenobiotics), that are normally unable to cross the gut wall, from the intestine into the body proper, which may trigger synthesis of misfolded alpha-synuclein in the enteric wall and its transfer to the brain via n. vagus. The increased intestinal permeability is a typical consequence of epithelial dysfunction caused by all sorts of enteric inflammation. Therefore, induction of the inflammatory process may be used for setting of disease models. […] When fed to rodents, cycad flour triggers a progressive development of neurological deficits, with behavioral and cellular features that closely approximate those observed in patients. Besides neurotoxic properties, BSSG directly interacts with epithelium. It loosens tight junctions in mucosa via increase of intracellular calcium levels and thus increases permeability of epithelium.
Male Sprague Dawley rats were used in a study performed during 10 months. The animals were put on the baseline diet consisting of BSSG, 3 mg/day, 5 doses weekly p.o. in Month 1 to Month 4. […]
The observed parameters: • 1. Quantitative analysis of misfolded α-synuclein in substantia nigra lysate • 2. Quantitative analysis of misfolded α-synuclein in intestinal lysate • 3. Quantitative analysis of misfolded α-synuclein in olfactory bulb lysate • 4. […]
Final analysis at Month 10 to investigate neurodegenerative disease progression: after in vivo tests (locomotion, coordination, and cognitive) a subgroup of animals in each experimental group is sacrificed. […] In addition inflammatory markers such as TNF-α, IL-6, etc. in brain section samples and serum are measured.
In order to evaluate the overall efficacy of rebamipide in Parkinson's disease a Cumulative PD Score was calculated. […]

With `O=C(NC(Cc1cc(=O)[nH]c2ccccc12)C(=O)O)c1ccc(Cl)cc1` (stereo not drawn) [Rebamipide, 2-[(4-chlorobenzoyl)amino]-3-(2-oxo-1H-quinolin-4-yl)propanoic acid] the “alpha-synuclein aggregates in comparison with the placebo group” value (rebamipide 30 or 200 mg/kg/day p.o. in feed, BSSG 3 mg/day, histological analysis, preliminary results) was “reduced”, the “parameters tested including functional tests” value (rebamipide 30 or 200 mg/kg/day p.o. in feed, BSSG 3 mg/day, vs placebo, preliminary results) was “significant improvement” and the “Cumulative PD score, better as compared to the placebo group” value (weighted score of α-synuclein, functional, permeability, inflammatory, olfactory, retinal tests and mortality, rebamipide treated group vs placebo) was “more than 20%”.
